Test results: US20220274979A1 (Bayer Pharma Aktiengesellschaft, priority 2018, published 2022)
Read-outs that look alike come from different tables or passages of the source.

Experiments:
[1] = target: T1, hSOS1 (hSOS1-mediated nucleotide exchange of hK-RasG12C) (Homo sapiens, UniProt Q07889); test: Biochemical Assay 2: hK-RasG12C activation assay by hSOS1 at high GTP concentration (HTRF nucleotide exchange); details: high GTP (50 μM GTP)
T1 construct: hSOS1 (amino acid 564-1049); made in house; host or cells: E. coli BL21 (DE3)
T1 sequence (Q07889 with tags, fused parts or gaps): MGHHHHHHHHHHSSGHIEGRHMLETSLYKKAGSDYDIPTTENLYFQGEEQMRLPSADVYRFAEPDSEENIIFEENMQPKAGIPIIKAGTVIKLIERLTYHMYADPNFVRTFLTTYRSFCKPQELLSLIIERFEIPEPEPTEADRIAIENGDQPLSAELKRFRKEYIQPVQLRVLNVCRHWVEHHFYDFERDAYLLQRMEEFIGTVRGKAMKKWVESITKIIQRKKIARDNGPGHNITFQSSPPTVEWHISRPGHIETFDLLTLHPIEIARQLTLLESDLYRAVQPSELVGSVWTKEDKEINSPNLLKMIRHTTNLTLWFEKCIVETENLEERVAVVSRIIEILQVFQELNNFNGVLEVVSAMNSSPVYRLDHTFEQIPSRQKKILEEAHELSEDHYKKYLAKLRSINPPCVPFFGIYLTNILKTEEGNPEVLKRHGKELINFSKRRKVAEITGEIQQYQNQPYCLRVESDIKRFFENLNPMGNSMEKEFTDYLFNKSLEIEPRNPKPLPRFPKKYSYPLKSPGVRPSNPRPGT
From the text: Biochemical Assay 2: hK-RasG12C Activation Assay by hSOS1 at High GTP Concentration
This assay quantifies human SOS1-mediated nucleotide exchange of human K-Ras^G12C (hK-RasG12C) preloaded with a fluorescent […] and in presence of an excess of free GTP. Loaded hK-RasG12C generates a high HTRF-signal by energy transfer from antiGST-Terbium (FRET donor) bound to hK-Ras to the loaded fluorescent GDP analog (FRET-acceptor). hSOS1 activity exchanges the fluorescent GDP for non-fluorescent GTP and therefore leads to a reduction of the HTRF signal.
The fluorescent GDP-analog EDA-GDP-Dy647P1 (2′/3′-O-(2-Aminoethyl-carbamoyl)-guanosine-5′-diphosphate labelled with Dy647P1 (Dyomics GmbH, Germany)) was synthesized by Jena Biosciences GmbH (Germany) and supplied as a 1 mM aqueous solution.
Concentrations of protein batches used were optimized to be within the linear range of the HTRF signal.
Addition of 20 μl 1 M MgCl2 (Sigma) to final 40 mM and store on ice. Purification into buffer (10 mM HEPES pH 7.4 (Applichem), 150 mM NaCl (Sigma), 5 mM MgCl2 (Sigma)) by use of a PD-Minitrap desalting column (GE Healthcare). Concentration of 1 ml purified hK-Ras-GDP-Dy647 is approx. 4-5 μM.
The assay buffer contained 10 mM HEPES pH 7.4 (Applichem), 150 mM NaCl (Sigma), 5 mM MgCl2 (Sigma), 1 mM DTT (Thermofisher), 0.05% BSA Fraction V, pH 7.0, (ICN Biomedicals), 0.0025% (v/v) Igepal (Sigma).
A Ras working solution was prepared in assay buffer containing typically 80 nM loaded GST-hK-RasG12C-EDA-GDP-Dy647P1 and 2 nM antiGST-Tb (Cisbio, France).
Alternatively, the inhibitor control solution was prepared by supplementing the hSOS1 working solution with 20 μM of 6,7-dimethoxy-N-[(1R)-1-(1-naphthyl)ethyl]quinazolin-4-amine which was used to calibrate the assay.
(§1) Fifty nl of a 100-fold concentrated solution of the test compound in DMSO were transferred into a black microtiter test plate (384 or 1536, Greiner Bio-One, Germany) For this, either a Hummingbird liquid handler (Digilab, Mass., USA) or an Echo acoustic system (Labcyte, Calif., USA) was used.
(§2) All steps of the assay were performed at 20° C. A volume of 2.5 μl of the Ras working solution was added to all wells of the test plate using a Multidrop dispenser (Thermo Labsystems). After 2 min. preincubation, 2.5 μl of the hSOS1 working solution were added to all wells except for those wells at the side of the test plate that were subsequently filled with 2.5 μl of the inhibitor control solution. After 20 min. incubation the fluorescence was measured with a Pherastar (BMG, Germany) using the HTRF module (excitation 337 nm, emission 1:620 nm, emission 2:665 nm).
(§3) IC50 values were calculated by 4-Parameter fitting using a commercial software package (Genedata Screener, Switzerland).

[2] = target: T2, hK-RasG12C - hSOS1 interaction (Homo sapiens, UniProt Q07889); test: Biochemical Assay 1: hK-RasG12C interaction assay with hSOS1 (HTRF); assay type: binding; details: for inhibition at 20 µM: read-out: Assay 1 (hKRAS, hSOS Interaction) activity (expressed as IC50, or as % inhibition at 20 μM)
T2 construct: hSOS1 (amino acid 564-1049); made in house; host or cells: E. coli BL21 (DE3)
T2 sequence (Q07889 with tags, fused parts or gaps): T1 sequence (Q07889 with tags, fused parts or gaps)
Protocol: Biochemical Assay 1: hK-RasG12C Interaction Assay with hSOS1
This assay quantifies the equilibrium interaction of human SOS1 (hSOS1) with human K-Ras^G12C (hK-RasG12C). Detection of the interaction is achieved by measuring homogenous time-resolved fluorescence resonance energy transfer (HTRF) from antiGST-Europium (FRET donor) bound to GST-K-RasG12C to anti-6His-XL665 bound to His-tagged hSOS1 (FRET-acceptor).
The assay buffer contained 5 mM HEPES pH 7.4 (Applichem), 150 mM NaCl (Sigma), 10 mM EDTA (Promega), 1 mM DTT (Thermofisher), 0.05% BSA Fraction V, pH 7.0, (ICN Biomedicals), 0.0025% (v/v) Igepal (Sigma) and 100 mM KF (FLUKA).
Concentrations of protein batches used were optimized to be within the linear range of the HTRF signal. A Ras working solution was prepared in assay buffer containing typically 10 nM GST-hK-RasG12C and 2 nM antiGST-Eu(K) (Cisbio, France). A SOS1 working solution was prepared in assay buffer containing typically 20 nM His-hSOS1 and 10 nM anti-6His-XL665 (Cisbio, France). An inhibitor control solution was prepared in assay buffer containing 10 nM anti-6His-XL665 without hSOS1.
as §1
as §2, with “[…]” for “min.”, “SOS1” for “hSOS1”, “[…]” for “20 min.”
as §3

CC(=O)NC1CCN(c2cc3c(N[C@H](C)c4cccc(Br)c4)nc(C)nc3cn2)C1 (mixture of isomers) [Example 42, N-[1-(4-{[(1R)-1-(3-bromophenyl)ethyl]amino}-2-methylpyrido[3,4-d]pyrimidin-6-yl)pyrrolidin-3-yl]acetamide]
IC50 [1]: 215 nM | IC50 ([2]; values expressed as IC50): 187 nM

Cc1nc(NC(C)c2ccc(-c3ccccc3CN(C)C)s2)c2cc(C3CCN(C)C3=O)ncc2n1 (mixture of isomers) [Example 69, 3-(4-{[1-(5-{2-[(dimethylamino)methyl]phenyl}thiophen-2-yl)ethyl]amino}-2-methylpyrido[3,4-d]pyrimidin-6-yl)-1-methylpyrrolidin-2-one]
IC50 [1]: 98.3 nM | IC50 ([2]; values expressed as IC50): 62.6 nM

Cc1nc(NC(C)c2ccc(-c3ccccc3CN(C)C)s2)c2cc(C3(O)CCN(C)C3=O)ncc2n1 (mixture of isomers) [Example 85, 3-(4-{[1-(5-{2-[(dimethylamino)methyl]phenyl}thiophen-2-yl)ethyl]amino}-2-methylpyrido[3,4-d]pyrimidin-6-yl)-3-hydroxy-1-methylpyrrolidin-2-one]
IC50 [1]: 214 nM | IC50 [2]: 83.4 nM

CCOc1cc2c(NC(C)c3cccc4sccc34)nc(C)nc2cn1 (stereo not shown) [Example 3, N-[1-(1-benzothiophen-4-yl)ethyl]-6-ethoxy-2-methylpyrido[3,4-d]pyrimidin-4-amine]
IC50 [1]: 262 nM | IC50 ([2]; values expressed as IC50): 215 nM

COc1cc2c(NC(C)c3cccc4sccc34)nc(C)nc2cn1 (stereo not shown) [Example 4, N-[1-(1-benzothiophen-4-yl)ethyl]-6-methoxy-2-methylpyrido[3,4-d]pyrimidin-4-amine]
IC50 [1]: 423 nM | IC50 ([2]; values expressed as IC50): 355 nM

CCOc1cc2c(N[C@H](C)c3cccc(Br)c3)nc(C)nc2cn1 [Example 5, N-[(1R)-1-(3-bromophenyl)ethyl]-6-ethoxy-2-methylpyrido[3,4-d]pyrimidin-4-amine]
IC50 [1]: 994 nM | IC50 ([2]; values expressed as IC50): 491 nM

CCOc1cc2c(N[C@H](C)c3cccc(Cl)c3)nc(C)nc2cn1 [Example 6]
IC50 [1]: 1120 nM | IC50 ([2]; values expressed as IC50): 393 nM

CCOc1cc2c(N[C@H](C)c3cccc(S(C)(=O)=O)c3)nc(C)nc2cn1 [Example 7, 6-ethoxy-2-methyl-N-{(1R)-1-[3-(methylsulfonyl)phenyl]ethyl}pyrido[3,4-d]pyrimidin-4-amine]
IC50 [1]: 1300 nM | IC50 ([2]; values expressed as IC50): 633 nM

COc1cc2c(N[C@H](C)c3ccc(F)c(Cl)c3)nc(C)nc2cn1 [Example 8]
IC50 [1]: 4890 nM | IC50 ([2]; values expressed as IC50): 5490 nM

Cc1nc(N[C@H](C)c2ccc(F)cc2)c2cc(F)ncc2n1 [Example 9]
IC50 [1]: 17900 nM | inhibition at 20 µM [2]: 54%

Cc1nc(N[C@H](C)c2ccc(F)cc2)c2cc(OCC3CCOCC3)ncc2n1 [Example 11, N-[1R)-1-(4-fluorophenypethyl]-2-methyl-6-(tetrahydro-2H-pyran-4-ylmethoxy)-pyrido[3,4-d]pyrimidin-4-amine]
IC50 [1]: 1960 nM | IC50 ([2]; values expressed as IC50): 1790 nM

COc1cc2c(N[C@H](C)c3ccc(F)c(C4CC4)c3)nc(C)nc2cn1 [Example 12]
IC50 [1]: 6450 nM | IC50 ([2]; values expressed as IC50): 5840 nM

CCOc1cc2c(N[C@H](C)c3ccc(Br)cc3)nc(C)nc2cn1 [Example 13, N-[(1R)-1-(4-bromophenyl)ethyl]-6-ethoxy-2-methylpyrido[3,4-d]pyrimidin-4-amine]
IC50 [1]: 1780 nM | IC50 ([2]; values expressed as IC50): 1220 nM

COc1cc2c(NC(C)c3cccc4c3cnn4C)nc(C)nc2cn1 (stereo not shown) [Example 14, 6-methoxy-2-methyl-N-[1-(1-methyl-1H-indazol-4-yl)ethyl]pyrido[3,4-d]pyrimidin-4-amine]
IC50 [1]: 1950 nM | IC50 ([2]; values expressed as IC50): 1650 nM

Cc1nc(N[C@H](C)c2ccc(F)cc2)c2cc(OC(C)C)ncc2n1 [Example 15]
IC50 [1]: 1900 nM | IC50 ([2]; values expressed as IC50): 1480 nM

COc1cc2c(NC(C)c3cccc4nn(C)cc34)nc(C)nc2cn1 (stereo not shown) [Example 17, 6-methoxy-2-methyl-N-[1-(2-methyl-2H-indazol-4-yl)ethyl]pyrido[3,4-d]pyrimidin-4-amine]
IC50 [1]: 7730 nM | IC50 ([2]; values expressed as IC50): 9190 nM

CCOc1cc2c(N[C@H](C)c3ccc(C#N)cc3)nc(C)nc2cn1 [Example 18, 4-{(1R)-1-[(6-ethoxy-2-methylpyrido[3,4-d]pyrimidin-4-yl)amino]ethyl}benzonitrile]
IC50 [1]: 1010 nM | IC50 ([2]; values expressed as IC50): 1110 nM

Cc1nc(N[C@H](C)c2cccc(Br)c2)c2nc(OCc3ccccc3)ncc2n1 [Example 20, 6-(benzyloxy)-N-[(1R)-1-(3-bromophenyl)ethyl]-2-methylpyrimido[5,4-d]pyrimidin-4-amine]
IC50 [1]: > 20000 nM | inhibition at 20 µM [2]: 30%

Cc1nc(N[C@H](C)c2cccc(Br)c2)c2nc(N(C)C)ncc2n1 [Example 21]
IC50 [1]: > 20000 nM | inhibition at 20 µM [2]: 26.3%

Cc1nc(N[C@H](C)c2cccc(Br)c2)c2nc(N3CCOCC3)ncc2n1 [Example 22, N-[(1R)-1-(3-bromophenyl)ethyl]-2-methyl-6-(morpholin-4-yl)pyrimido[5,4-d]pyrimidin-4-amine]
IC50 [1]: 1960 nM | IC50 ([2]; values expressed as IC50): 1620 nM

CCOc1ncc2nc(C)nc(N[C@H](C)c3cccc(Br)c3)c2n1 [Example 23, N-[(1R)-1-(3-bromophenyl)ethyl]-6-ethoxy-2-methylpyrimido[5,4-d]pyrimidin-4-amine]
IC50 [1]: 4450 nM | IC50 ([2]; values expressed as IC50): 4350 nM

COc1ncc2nc(C)nc(N[C@H](C)c3cccc(Br)c3)c2n1 [Example 24, N-[(1R)-1-(3-bromophenyl)ethyl]-6-methoxy-2-methylpyrimido[5,4-d]pyrimidin-4-amine]
IC50 [1]: 9710 nM | IC50 ([2]; values expressed as IC50): 9410 nM

Cc1nc(N[C@H](C)c2cccc(Br)c2)c2nc(Oc3ccccc3)ncc2n1 [Example 25, N-[(1R)-1-(3-bromophenyl)ethyl]-2-methyl-6-phenoxypyrimido[5,4-d]pyrimidin-4-amine]
IC50 [1]: > 20000 nM | inhibition at 20 µM [2]: 23.7%
